Measured values from paper PMC6953607 (Nature microbiology, 2019).
Values after ≈ are worked out from the molar mass of the structure shown. Values belong to the compound of their own block, whether it stands above or below them.

Columns and labels:
P. aeruginosa PA01 = assay: MIC, micro-dilution broth; assay type: cell-based
A. baumannii = assay: MIC, micro-dilution broth; assay type: cell-based
E. cloacae = assay: MIC, micro-dilution broth; assay type: cell-based; conditions: E. cloacae ATCC 29893
K. pneumoniae = assay: MIC, micro-dilution broth; assay type: cell-based
Mouse MTD = assay type: in vivo, C57BL/6 mice; conditions: IP, mice monitored 2 weeks
[1] = system: E. coli MG1655 harboring FabI variants; assay: MIC against Debio-1452-NH3-resistant colonies; assay type: cell-based
E. coli MG1655 = assay: Accumulation assay, LC-MS/MS; assay type: cell-based; conditions: E. coli MG1655, 50 μM compound, up to 2 h
E. coli = assay: MIC, micro-dilution broth; assay type: cell-based; conditions: Escherichia coli, E. coli strains with intact outer membranes
S. aureus ATCC29213 = assay: MIC, micro-dilution broth; assay type: cell-based
[2] = open-label clinical trial ref 26; cited from earlier work
S. aureus = conditions: cited from earlier work

MIC (P. aeruginosa PA01): >32 µg/mL | MIC (A. baumannii; A. baumannii W41979): >32 µg/mL | MIC (A. baumannii; Acinetobacter baumannii, A. baumannii F19521): > 32 µg/mL | MIC (E. cloacae): >32 µg/mL | MIC (K. pneumoniae; K. pneumoniae S47889): >32 µg/mL | MIC (K. pneumoniae; Klebsiella pneumoniae, BAA1705, K. pneumoniae BAA-1705): > 32 µg/mL
SMILES: Cc1c(CN(C)C(=O)/C=C/c2cnc3c(c2)CC(NC(=O)OC(C)(C)C)C(=O)N3)oc2ccccc12 (stereo not drawn) [Compound 8]

SMILES: Cc1c(CN(C)C(=O)/C=C/c2cnc3c(c2)CC(CCN)C(=O)N3)oc2ccccc12.Cl (stereo not drawn) [Compound 3]
well tolerated single dose (Mouse MTD): 100 mg/kg

SMILES: Oc1cc(Cl)ccc1Oc1ccc(Cl)cc1Cl [Triclosan]
cross-resistance ([1]; A116V mutants resistant to Debio-1452-NH3): no cross-resistance | cross-resistance ([1]; G148S mutants resistant to Debio-1452-NH3): minimal cross-resistance

SMILES: Cc1c(CN(C)C(=O)/C=C/c2cnc3c(c2)CCC(=O)N3)oc2ccccc12 [Debio-1452]
MIC (P. aeruginosa PA01): >32 µg/mL | accumulation (E. coli MG1655): no statistically significant accumulation over negative controls | MIC (A. baumannii; A. baumannii F19521): >32 µg/mL | MIC (A. baumannii; A. baumannii W41979): >32 µg/mL | MIC (E. coli): > 32 µg/mL | MIC (S. aureus ATCC29213; S. aureus ATCC 29213): 0.008 µg/mL (≈ 0.0213 µM) | fold increase in MIC in the presence of serum (S. aureus ATCC29213; S. aureus, human serum): 8 fold | efficacy in patients [2]: marked efficacy | MIC (E. cloacae): >32 µg/mL | efficacy in animal models of S. aureus infections (S. aureus): marked efficacy | MIC (K. pneumoniae; K. pneumoniae BAA-1705): >32 µg/mL | MIC (K. pneumoniae; K. pneumoniae S47889): >32 µg/mL
